# ChEMBL document CHEMBL3885881, “DrugMatrix”
# Organism: Rattus norvegicus
# Assay: DrugMatrix - Regimen: Daily Repeat
# Assay type: toxicity, organism-based, Sprague-Dawley
# Set-up: regimen Daily Repeat, gender Male, age 6-8 weeks
# Details: in vivo, po, route oral GAVAGE, […]; for ABSOLUTE BASOPHIL / ABSOLUTE EOSINOPHIL / ABSOLUTE LYMPHOCYTE / ABSOLUTE MONOCYTE / ABSOLUTE SEGMENTED NEUTROPHIL / BASOPHIL / EOSINOPHIL / ERYTHROCYTE COUNT / HEMATOCRIT / HEMOGLOBIN / LEUKOCYTE COUNT / LYMPHOCYTE / MEAN CORPUSCULAR HEMOGLOBIN / MEAN CORPUSCULAR HEMOGLOBIN CONCENTRATION / MEAN CORPUSCULAR VOLUME / MONOCYTE / NEUTROPHIL / NUCLEATED RED BLOOD CELLS / PLATELET COUNT: tissue Blood; for ALANINE AMINOTRANSFERASE / ALBUMIN / ALKALINE PHOSPHATASE / ASPARTATE AMINOTRANSFERASE / BLOOD UREA NITROGEN / CARBON DIOXIDE / CHLORIDE / CHOLESTEROL / CREATINE PHOSPHOKINASE / CREATININE / GLUCOSE / LACTATE DEHYDROGENASE / LIPASE / PHOSPHORUS / POTASSIUM / SODIUM / TOTAL BILIRUBIN / TOTAL PROTEIN / URIC ACID: tissue Plasma
# [1] = 2000 mg/kg, 72 h, dose level High, time 3 day
# [2] = 2000 mg/kg, 120 h, dose level High, time 5 day
# [3] = 72 h, dose 0.33 mg/Kg, dose level Low, time 3 day
# [4] = 120 h, dose 0.33 mg/Kg, dose level Low, time 5 day
smiles,measurement,setting,value
COc1ccc2[nH]cc(CCNC(C)=O)c2c1 [MELATONIN],ABSOLUTE BASOPHIL,[1],0 CELLS/uL
same,ABSOLUTE EOSINOPHIL,[1],23.67 CELLS/uL
same,ABSOLUTE LYMPHOCYTE,[1],9249.33 CELLS/uL
same,ABSOLUTE MONOCYTE,[1],250.67 CELLS/uL
same,ABSOLUTE SEGMENTED NEUTROPHIL,[1],1876.33 CELLS/uL
same,BASOPHIL,[1],0%
same,EOSINOPHIL,[1],0.33%
same,ERYTHROCYTE COUNT,[1],5.38 x10E6/uL
same,HEMATOCRIT,[1],32.93%
same,HEMOGLOBIN,[1],13.5 G/DL
same,LEUKOCYTE COUNT,[1],11.4 x10E3/uL
same,LYMPHOCYTE,[1],82.33%
same,MEAN CORPUSCULAR HEMOGLOBIN,[1],25.17 pg
same,MEAN CORPUSCULAR HEMOGLOBIN CONCENTRATION,[1],41.03 G/DL
same,MEAN CORPUSCULAR VOLUME,[1],61.27 fL
same,MONOCYTE,[1],2%
same,NEUTROPHIL,[1],15.33%
same,NUCLEATED RED BLOOD CELLS,[1],0 /100WBC
same,PLATELET COUNT,[1],1209.67 x10E3/uL
same,ALANINE AMINOTRANSFERASE,[1],115 u/L
same,ALBUMIN,[1],3.3 G/DL
same,ALKALINE PHOSPHATASE,[1],505.67 u/L
same,ASPARTATE AMINOTRANSFERASE,[1],128.33 u/L
same,BLOOD UREA NITROGEN,[1],15 mg/dL
same,CARBON DIOXIDE,[1],25.67 mmol/L
same,CHLORIDE,[1],100.33 MEQ/L
same,CHOLESTEROL,[1],84 mg/dL
same,CREATINE PHOSPHOKINASE,[1],757.33 u/L
same,CREATININE,[1],0.38 mg/dL
same,GLUCOSE,[1],155 mg/dL
same,LACTATE DEHYDROGENASE,[1],369.33 u/L
same,LIPASE,[1],11.67 u/L
same,PHOSPHORUS,[1],13.07 mg/dL
same,POTASSIUM,[1],6.08 MEQ/L
same,SODIUM,[1],140.4 MEQ/L
same,TOTAL BILIRUBIN,[1],0.5 mg/dL
same,TOTAL PROTEIN,[1],4.6 G/DL
same,URIC ACID,[1],1.43 mg/dL
same,ABSOLUTE BASOPHIL,[2],0 CELLS/uL
same,ABSOLUTE EOSINOPHIL,[2],0 CELLS/uL
same,ABSOLUTE LYMPHOCYTE,[2],18071 CELLS/uL
same,ABSOLUTE MONOCYTE,[2],251 CELLS/uL
same,ABSOLUTE SEGMENTED NEUTROPHIL,[2],1211.33 CELLS/uL
same,BASOPHIL,[2],0%
same,EOSINOPHIL,[2],0%
same,ERYTHROCYTE COUNT,[2],6.07 x10E6/uL
same,HEMATOCRIT,[2],38.13%
same,HEMOGLOBIN,[2],15.13 G/DL
same,LEUKOCYTE COUNT,[2],19.53 x10E3/uL
same,LYMPHOCYTE,[2],92.67%
same,MEAN CORPUSCULAR HEMOGLOBIN,[2],24.9 pg
same,MEAN CORPUSCULAR HEMOGLOBIN CONCENTRATION,[2],39.7 G/DL
same,MEAN CORPUSCULAR VOLUME,[2],62.77 fL
same,MONOCYTE,[2],1.33%
same,NEUTROPHIL,[2],6%
same,NUCLEATED RED BLOOD CELLS,[2],0 /100WBC
same,PLATELET COUNT,[2],1278.33 x10E3/uL
same,ALANINE AMINOTRANSFERASE,[2],124.67 u/L
same,ALBUMIN,[2],3.73 G/DL
same,ALKALINE PHOSPHATASE,[2],553.33 u/L
same,ASPARTATE AMINOTRANSFERASE,[2],154.67 u/L
same,BLOOD UREA NITROGEN,[2],19 mg/dL
same,CARBON DIOXIDE,[2],32 mmol/L
same,CHLORIDE,[2],100.33 MEQ/L
same,CHOLESTEROL,[2],99 mg/dL
same,CREATINE PHOSPHOKINASE,[2],788.67 u/L
same,CREATININE,[2],0.24 mg/dL
same,GLUCOSE,[2],136 mg/dL
same,LACTATE DEHYDROGENASE,[2],320.67 u/L
same,LIPASE,[2],12.33 u/L
same,PHOSPHORUS,[2],11.03 mg/dL
same,POTASSIUM,[2],6.53 MEQ/L
same,SODIUM,[2],142.13 MEQ/L
same,TOTAL BILIRUBIN,[2],0.4 mg/dL
same,TOTAL PROTEIN,[2],5.07 G/DL
same,URIC ACID,[2],1.2 mg/dL
same,ABSOLUTE BASOPHIL,[3],0 CELLS/uL
same,ABSOLUTE EOSINOPHIL,[3],0 CELLS/uL
same,ABSOLUTE LYMPHOCYTE,[3],12175.67 CELLS/uL
same,ABSOLUTE MONOCYTE,[3],180.67 CELLS/uL
same,ABSOLUTE SEGMENTED NEUTROPHIL,[3],1643.67 CELLS/uL
same,BASOPHIL,[3],0%
same,EOSINOPHIL,[3],0%
same,ERYTHROCYTE COUNT,[3],5.39 x10E6/uL
same,HEMATOCRIT,[3],34.47%
same,HEMOGLOBIN,[3],13.5 G/DL
same,LEUKOCYTE COUNT,[3],14 x10E3/uL
same,LYMPHOCYTE,[3],87.33%
same,MEAN CORPUSCULAR HEMOGLOBIN,[3],25.1 pg
same,MEAN CORPUSCULAR HEMOGLOBIN CONCENTRATION,[3],39.17 G/DL
same,MEAN CORPUSCULAR VOLUME,[3],64.03 fL
same,MONOCYTE,[3],1.33%
same,NEUTROPHIL,[3],11.33%
same,NUCLEATED RED BLOOD CELLS,[3],0 /100WBC
same,PLATELET COUNT,[3],1125.33 x10E3/uL
same,ALANINE AMINOTRANSFERASE,[3],65 u/L
same,ALBUMIN,[3],4 G/DL
same,ALKALINE PHOSPHATASE,[3],447.33 u/L
same,ASPARTATE AMINOTRANSFERASE,[3],76.67 u/L
same,BLOOD UREA NITROGEN,[3],13.33 mg/dL
same,CARBON DIOXIDE,[3],31 mmol/L
same,CHLORIDE,[3],102 MEQ/L
same,CHOLESTEROL,[3],74.33 mg/dL
same,CREATINE PHOSPHOKINASE,[3],191.33 u/L
same,CREATININE,[3],0.26 mg/dL
same,GLUCOSE,[3],163.33 mg/dL
same,LACTATE DEHYDROGENASE,[3],156.67 u/L
same,LIPASE,[3],10.33 u/L
same,PHOSPHORUS,[3],11.6 mg/dL
same,POTASSIUM,[3],6.23 MEQ/L
same,SODIUM,[3],142.1 MEQ/L
same,TOTAL BILIRUBIN,[3],0.2 mg/dL
same,TOTAL PROTEIN,[3],5.03 G/DL
same,URIC ACID,[3],1.47 mg/dL
same,ABSOLUTE BASOPHIL,[4],0 CELLS/uL
same,ABSOLUTE EOSINOPHIL,[4],0 CELLS/uL
same,ABSOLUTE LYMPHOCYTE,[4],12476.67 CELLS/uL
same,ABSOLUTE MONOCYTE,[4],229.67 CELLS/uL
same,ABSOLUTE SEGMENTED NEUTROPHIL,[4],1393.67 CELLS/uL
same,BASOPHIL,[4],0%
same,EOSINOPHIL,[4],0%
same,ERYTHROCYTE COUNT,[4],5.39 x10E6/uL
same,HEMATOCRIT,[4],32.43%
same,HEMOGLOBIN,[4],13.13 G/DL
same,LEUKOCYTE COUNT,[4],14.1 x10E3/uL
same,LYMPHOCYTE,[4],88.33%
same,MEAN CORPUSCULAR HEMOGLOBIN,[4],24.4 pg
same,MEAN CORPUSCULAR HEMOGLOBIN CONCENTRATION,[4],40.53 G/DL
same,MEAN CORPUSCULAR VOLUME,[4],60.23 fL
same,MONOCYTE,[4],1.67%
same,NEUTROPHIL,[4],10%
same,NUCLEATED RED BLOOD CELLS,[4],0 /100WBC
same,PLATELET COUNT,[4],1131.67 x10E3/uL
same,ALANINE AMINOTRANSFERASE,[4],56.33 u/L
same,ALBUMIN,[4],4.1 G/DL
same,ALKALINE PHOSPHATASE,[4],363.67 u/L
same,ASPARTATE AMINOTRANSFERASE,[4],76 u/L
same,BLOOD UREA NITROGEN,[4],16 mg/dL
same,CARBON DIOXIDE,[4],30 mmol/L
same,CHLORIDE,[4],102 MEQ/L
same,CHOLESTEROL,[4],64 mg/dL
same,CREATINE PHOSPHOKINASE,[4],170.33 u/L
same,CREATININE,[4],0.24 mg/dL
same,GLUCOSE,[4],163 mg/dL
same,LACTATE DEHYDROGENASE,[4],89.33 u/L
same,LIPASE,[4],10.67 u/L
same,PHOSPHORUS,[4],10.7 mg/dL
same,POTASSIUM,[4],5.96 MEQ/L
same,SODIUM,[4],142.07 MEQ/L
same,TOTAL BILIRUBIN,[4],0.17 mg/dL
same,TOTAL PROTEIN,[4],5.53 G/DL
same,URIC ACID,[4],1.3 mg/dL
